The first assay deals with phosphorylated active hERK2 enzyme (Homo sapiens (Human), UniProt P28482). Kind of assay: Active Human ERK2 (hERK2) Activity Assay (IMAP-FP). The class given is biochemical. The note with it: Table 5, 0.5 nM hERK2, 30 μM ATP, 10 point titration, read-out: AERK2 IC50. In outline:
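IMAP detection beads in buffer with 24 mM NaCl stopped the reaction, and fluorescence polarization was read after 60 min binding.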
Chain of phosphorylated active hERK2 enzyme (P28482 whole entry): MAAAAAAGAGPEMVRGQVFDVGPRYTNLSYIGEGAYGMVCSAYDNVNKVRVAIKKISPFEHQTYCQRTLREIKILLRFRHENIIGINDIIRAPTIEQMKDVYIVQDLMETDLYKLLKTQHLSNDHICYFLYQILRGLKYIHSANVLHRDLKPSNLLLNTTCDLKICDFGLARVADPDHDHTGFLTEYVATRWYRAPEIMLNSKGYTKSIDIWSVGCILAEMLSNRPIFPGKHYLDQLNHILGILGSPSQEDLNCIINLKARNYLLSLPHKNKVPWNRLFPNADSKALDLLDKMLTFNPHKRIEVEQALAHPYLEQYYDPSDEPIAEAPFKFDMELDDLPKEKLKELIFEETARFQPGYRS
For the molecule `C[C@@H](NC(=O)Nc1cc2[nH]nc(N3CCCC3)c2cn1)c1ccccc1` [Example 29, 1-[(1R)-1-phenylethyl]-3-(3-pyrrolidin-1-yl-1H-pyrazolo[4,3-c]pyridin-6-yl)urea], the IC50 stood at 0.82 nM.
Take `COC[C@@H](NC(=O)Nc1cc2[nH]nc(N3CCC3)c2cn1)c1ccccc1` [Example 24, 1-(3-azetidin-1-yl-1H-pyrazolo[4,3-c]pyridin-6-yl)-3-[(1S)-2-methoxy-1-phenylethyl]urea]: the half-maximal inhibitory concentration (IC50) was determined as 4.8 nM.
For the molecule `C[C@@H](NC(=O)Nc1cc2[nH]nc(N)c2cn1)c1ccc(F)cc1` [Example 44, 1-(3-amino-1H-pyrazolo[4,3-c]pyridin-6-yl)-3-[(1R)-1-(4-fluorophenyl)ethyl]urea], the concentration for half-maximal inhibition (IC50) worked out at 2.81 nM.
Still for that read-out and setting: in the case of `CO[C@@H](C)CNC(=O)Nc1cc2[nH]nc(N3CCOCC3)c2cn1` [Example 17, 1-[(2S)-2-methoxypropyl]-3-(3-morpholin-4-yl-1H-pyrazolo[4,3-c]pyridin-6-yl)urea] it was 11.8 nM.

The same assay, now with this note: Table 6, 0.5 nM hERK2, 30 μM ATP, 10 point titration, read-out: AERK2 IC50.
For `COC[C@@H](NC(=O)Nc1cc2[nH]nc(N3CC(O)C3)c2cn1)c1ccccc1` [Example 80, 1-[3-(3-hydroxy-azetidin-1-yl)-1H-pyrazolo[4,3-c]-pyridin-6-yl]-3-[(1S)-2-methoxy-1-phenylethyl]urea], the concentration for half-maximal inhibition (IC50) was 5.5 nM.
The same measure, in the same setting: in the case of `C[C@@H](NC(=O)Nc1cc2[nH]nc(NC3CCCNC3)c2cn1)c1ccccc1` (stereo partly drawn) [Example 164, 1-[(1R)-1-phenylethyl]-3-[3-(piperidin-3-ylamino)-1H-pyrazolo[4,3-c]-pyridin-6-yl]urea] it was 30.2 nM; in that of `COC[C@@H](NC(=O)Nc1cc2[nH]nc(Nc3cnn(C)c3)c2cn1)c1ccc(F)cc1` [Example 372, 1-[(1S)-1-(4-fluorophenyl)-2-methoxyethyl]-3-{3-[(1-methyl-1H-pyrazol-4-yl)-amino]-1H-pyrazolo[4,3-c]-pyridin-6-yl}urea], 14.7 nM; in that of `CCNc1n[nH]c2cc(NC(=O)NC3CCCC3c3ccccc3)ncc12` (stereo not shown) [Example 237, 1-[3-(ethylamino)-1H-pyrazolo[4,3-c]pyridin-6-yl]-3-(2-phenyl-cyclopentyl)urea], 8.3 nM.
Take `COC1CC(CNc2n[nH]c3cc(NC(=O)N[C@H](C)c4ccccc4)ncc23)C1` (stereo partly drawn) [Example 170, 1-(3-{[(3-methoxy-cyclobutyl)methyl]amino}-1H-pyrazolo[4,3-c]-pyridin-6-yl)-3-[(1R)-1-phenylethyl]urea]: the half-maximal inhibitory concentration (IC50) was 2.7 nM.
`C[C@@H](NC(=O)Nc1cc2[nH]nc(NC(=O)CC(F)(F)F)c2cn1)c1ccccc1` [Example 199, 3,3,3-trifluoro-N-[6-({[(1R)-1-phenylethyl]-carbamoyl}amino)-1H-pyrazolo[4,3-c]-pyridin-3-yl]-propanamide]: the IC50 was 1.1 nM.
Still for that read-out and setting: in the case of `COCCOC(=O)Nc1n[nH]c2cc(NC(=O)N[C@H](C)c3ccccc3)ncc12` [Example 221, 2-methoxyethyl [6-({[(1R)-1-phenyl-ethyl]carbamoyl}-amino)-1H-pyrazolo[4,3-c]-pyridin-3-yl]-carbamate] it was 6.6 nM; in that of `Nc1n[nH]c2cc(NC(=O)NCc3cccc(F)c3)ncc12` [Example 265, 1-(3-amino-1H-pyrazolo[4,3-c]-pyridin-6-yl)-3-(3-fluorobenzyl)urea], 24.5 nM.
Regarding `CC[C@@H](NC(=O)Nc1cc2[nH]nc(NC(=O)OC)c2cn1)c1ccc(Cl)cc1` [Example 301, methyl [6-({[(1R)-1-(4-chlorophenyl)-propyl]carbamoyl}amino)-1H-pyrazolo[4,3-c]-pyridin-3-yl]-carbamate], the IC50 turned out to be 1.4 nM.
On to `CCNc1n[nH]c2cc(NC(=O)N[C@@H](c3ccccc3)[C@@H]3CCCO3)ncc12` [Example 148, 1-[3-(ethylamino)-1H-pyrazolo[4,3-c]pyridin-6-yl]-3-{(S)-phenyl[(2S)-tetrahydrofuran-2-yl]methyl}urea], for which the IC50 was found to be 0.8 nM.
The same measure, in the same setting: in the case of `CCNc1n[nH]c2cc(NC(=O)NC(C)c3cc(C)ccn3)ncc12` (stereo not shown) [Example 281, 1-[3-(ethylamino)-1H-pyrazolo[4,3-c]pyridin-6-yl]-3-[1-(4-methyl-pyridin-2-yl)-ethyl]urea] it was 98.3 nM.
On to `CCNc1n[nH]c2cc(NC(=O)NC(C)c3ccc(C)nc3)ncc12` (stereo not shown) [Example 280, 1-[3-(ethylamino)-1H-pyrazolo[4,3-c]pyridin-6-yl]-3-[1-(6-methyl-pyridin-3-yl)-ethyl]urea], for which the IC50 was 143 nM.
Consider `COC[C@@H](NC(=O)Nc1cc2[nH]nc(NC3CCOC3)c2cn1)c1ccccc1` (stereo partly drawn) [Example 158, 1-[(1S)-2-methoxy-1-phenylethyl]-3-[3-(tetrahydro-furan-3-ylamino)-1H-pyrazolo[4,3-c]pyridin-6-yl]urea], for which the half-maximal inhibitory concentration (IC50) is 1.1 nM.
The same measure, in the same setting: in the case of `CC(C)(O)[C@@H](NC(=O)Nc1cc2[nH]nc(N3CC4CCC(C3)O4)c2cn1)c1ccccc1` [Example 442, 1-[(1S)-2-hydroxy-2-methyl-1-phenylpropyl]-3-[3-(8-oxa-3-azabicyclo[3.2.1]-oct-3-yl)-1H-pyrazolo[4,3-c]-pyridin-6-yl]urea] it was 0.5 nM; in that of `COC1CCN(c2n[nH]c3cc(NC(=O)N[C@H](C)c4ccccc4)ncc23)CC1` [Example 413, 1-[3-(4-methoxypiperidin-1-yl)-1H-pyrazolo[4,3-c]-pyridin-6-yl]-3-[(1R)-1-phenylethyl]urea], 4.5 nM; in that of `C[C@@H](NC(=O)Nc1cc2[nH]nc(NC3CCCC3)c2cn1)c1ccccc1` [Example 186, 1-[3-(cyclopentyl-amino)-1H-pyrazolo[4,3-c]-pyridin-6-yl]-3-[(1R)-1-phenylethyl]urea], 2.3 nM.
As to `CCNc1n[nH]c2cc(NC(=O)NCc3cccnc3N(C)C)ncc12` [Example 250, 1-{[2-(dimethyl-amino)pyridin-3-yl]methyl}-3-[3-(ethylamino)-1H-pyrazolo[4,3-c]-pyridin-6-yl]urea], the IC50 was 32 nM.
For the molecule `CCNc1n[nH]c2cc(NC(=O)N[C@H](C)c3ccc(Cl)c(C)c3)ncc12` [Example 252, 1-[(1R)-1-(4-chloro-3-methyl-phenyl)ethyl]-3-[3-(ethylamino)-1H-pyrazolo[4,3-c]-pyridin-6-yl]urea], the half-maximal inhibitory concentration (IC50) was 2 nM.
Still for that read-out and setting: to `C[C@@H](NC(=O)Nc1cc2[nH]nc(N3CCc4ncsc4C3)c2cn1)c1ccccc1` [Example 123, 1-[3-(6,7-dihydro[1,3]thiazolo-[5,4-c]pyridin-5(4H)-yl)-1H-pyrazolo[4,3-c]pyridin-6-yl]-3-[(1R)-1-phenylethyl]urea] belongs 0.4 nM.
Still for that read-out and setting: to `C[C@@H](NC(=O)Nc1cc2[nH]nc(N3CC(C(C)(C)O)C3)c2cn1)c1ccccc1` [Example 94, 1-{3-[3-(1-hydroxy-1-methylethyl)-azetidin-1-yl]-1H-pyrazolo[4,3-c]-pyridin-6-yl}-3-[(1R)-1-phenylethyl]-urea] belongs 25.4 nM; to `COC(=O)Nc1n[nH]c2cc(NC(=O)N[C@H](C)c3ccc(Cl)cc3)ncc12` [Example 286, methyl [6-({[(1R)-1-(4-chlorophenyl)-ethyl]carbamoyl}-amino)-1H-pyrazolo[4,3-c]pyridin-3-yl]carbamate], 5.2 nM; to `COC(=O)Nc1n[nH]c2cc(NC(=O)N[C@@H](c3ccccc3)C3(O)CCCC3)ncc12` [Example 289, methyl [6-({[(S)-(1-hydroxycyclo-pentyl)(phenyl)-methyl]carbamoyl}amino)-1H-pyrazolo[4,3-c]-pyridin-3-yl]-carbamate], 0.9 nM.
Regarding `C[C@@H](NC(=O)Nc1cc2[nH]nc(NC(=O)OCC(C)(C)C)c2cn1)c1ccccc1` [Example 224, 2,2-dimethylpropyl [6-({[(1R)-1-phenylethyl]-carbamoyl}amino)-1H-pyrazolo[4,3-c]pyridin-3-yl]-carbamate], the half-maximal inhibitory concentration (IC50) stood at 355 nM.
The same measure, in the same setting: in the case of `Nc1n[nH]c2cc(NC(=O)NC3COc4ccccc43)ncc12` (stereo not shown) [Example 259, 1-(3-amino-1H-pyrazolo[4,3-c]pyridin-6-yl)-3-(2,3-dihydro-1-benzofuran-3-yl)-urea] it was 325 nM.
Same read-out and setting: to `COC[C@@H](NC(=O)Nc1cc2[nH]nc(NCC3CC(C(C)(C)O)C3)c2cn1)c1ccccc1` (stereo partly drawn) [Example 182, 1-[3-({[3-(1-hydroxy-1-methylethyl)-cyclobutyl]methyl}amino)-1H-pyrazolo[4,3-c]pyridin-6-yl]-3-[(1S)-2-methoxy-1-phenylethyl]urea] belongs 2.6 nM; to `C[C@@H](NC(=O)Nc1cc2[nH]nc(N[C@H]3COC[C@H]3F)c2cn1)c1ccccc1` [Example 85, 1-(3-{[(3S,4S)-4-fluorotetrahydrofuran-3-yl]amino}-1H-pyrazolo[4,3-c]-pyridin-6-yl)-3-[(1R)-1-phenylethyl]urea], 0.8 nM.
On the same count and under the same terms, to `CC(C)C(=O)Nc1n[nH]c2cc(NC(=O)N[C@H](C)c3ccccc3)ncc12` [Example 163, 2-methyl-N-[6-({[(1R)-1-phenylethyl]-carbamoyl}amino)-1H-pypyrazolo[4,3-c]-pyridin-3-yl]propanamide] belongs 0.6 nM; to `CC(Nc1n[nH]c2cc(NC(=O)N[C@H](C)c3ccccc3)ncc12)C(F)(F)F` (stereo partly drawn) [Example 407, 1-[(1R)-1-phenylethyl]-3-{3-[(2,2,2-trifluoro-1-methylethyl)amino]-1H-pyrazolo[4,3-c]pyridin-6-yl}urea], 2.4 nM; to `C[C@@H](NC(=O)Nc1cc2[nH]nc(N[C@@H]3COC[C@@H]3F)c2cn1)c1ccccc1` [Example 84, 1-(3-{[(3R,4R)-4-fluorotetrahydrofuran-3-yl]amino}-1H-pyrazolo[4,3-c]-pyridin-6-yl)-3-[(1R)-1-phenylethyl]urea], 4.4 nM.
As to `CCNc1n[nH]c2cc(NC(=O)NCc3cnsn3)ncc12` [Example 231, 1-[3-(ethylamino)-1H-pyrazolo[4,3-c]pyridin-6-yl]-3-(1,2,5-thiadiazol-3-ylmethyl)urea], the half-inhibitory concentration (IC50) is 57 nM.

These data come from US9233979B2, “Compounds that are ERK inhibitors” (Merck Sharp & Dohme Corp., priority 2012, dated 2016).
